Tests used:
lung cancer cells (A549) = assay: Cytotoxicity by MTT analysis, A549; format: cell-based
Experimental: (§1) Toxicity to cells was analyzed using 3-[4,5-dimethylthiazol-2-yl]-2,5-diphenyl-tetra zolium bromide (MTT) analysis. As cancer cells to be measured, 8.0×10^3 cells/mL was aliquoted on a 96-well culture dish and then the cells were cultured for 24 hours. The next day, the synthesized compound was dissolved in a medium according to each concentration, and diluted in a medium according to each concentration. The medium in which the compound was dissolved according to each concentration was added to a culture dish at […], dimethyl sulfoxide (DMSO) was added to a control well so as to have the same volume as the added compound. After the addition, the cells were cultured in an incubator in 5% CO2 at 37° C., and then survival capability of cells was measured at 24 hours and 48 hours after the culture. After the medium was removed, the cells were washed twice using PBS, then 200 μL of a solution containing 1 mg/mL of MTT (Sigma-Aldrich Chemical Co., USA) was added thereto, and then the cells were further cultured for 3 hours in a CO2 incubator at 37° C. The 96-well culture dish was centrifuged for 10 minutes at 2000 rpm to remove the MTT solution. […] The solution was added to the 96-well culture dish, and then absorbance was measured at 540 nm. Relative absorbance was calculated using absorbance according to concentration of drugs divided by absorbance of a control group (drug-untreated group).

[1] = system: prostate cancer cell line, PC3; assay: Cytotoxicity by MTT analysis, PC3; format: cell-based; conditions: PC3 prostate cancer cells
Experimental: The prostate cancer cell line, PC3 was obtained from Korean Cell Line Bank. After adding Rosewell Park Memorial Institute (RPMI) 1640 cell culture medium (LM001-01, WelGEN) containing 10% fetal bovine serum (FBS), 100 units/mL of penicillin and 100 μg/mL of streptomycin to a 100 Φ dish, cells were inoculated on the dish and cultured in a CO2 incubator (VS-9000C, vision) in 5% CO2/95% humidified air atmosphere at 37° C.
Toxicity to cells was analyzed using 3-[4,5-dimethylthiazol-2-yl]-2,5-diphenyl-tetra zolium bromide (MTT) analysis. As cancer cells to be measured, 8.0×10^3 cells/mL was aliquoted on a 96-well culture dish and then the cells were cultured for 24 hours. The next day, the synthesized compound was dissolved in a medium according to each concentration, and diluted in a medium according to each concentration. […] After the addition, the cells were cultured in an incubator in 5% CO2 at 37° C., and then survival capability of cells was measured at 24 hours and 48 hours after the culture. […] The solution was added to the 96-well culture dish, and then absorbance was measured at 540 nm. Relative absorbance was calculated using absorbance according to concentration of drugs divided by absorbance of a control group (drug-untreated group).

[2] = system: skin cancer cells (SK-MEL2); assay: Cytotoxicity by MTT analysis, SK-MEL2; format: cell-based
Experimental: as §1

[3] = system: prostate cancer cell line, PC3, transplanted; assay: Anti-cancer effect in vivo in mice with transplanted PC3 tumors; conditions: 2 mg/kg/day i.v. for four consecutive days, compared 7 days after stoppage
Experimental: The anti-cancer activity of the compound according to the present invention, HF-154 was measured in in-vivo using mice in which a prostate cancer cell line, PC3, was transplanted. An experimental group included a group of two mice to which an excipient (vehicle) was administered and a group of four mice to which the compound according to the present invention, HF-154, was administered. The compound according to the present invention, HF-154, was administered to each mouse in an amount of 2 mg/kg/day (100 μL i.v.). First, after administration for four consecutive days, administration was stopped, and tumor growth was compared at 7 days after the stoppage.

[4] = system: colorectal cancer cells (HCT15); assay: Cytotoxicity by MTT analysis, HCT15; format: cell-based
Experimental: as §1

[5] = system: breast cancer cells (MCF7); assay: Cytotoxicity by MTT analysis, MCF7; format: cell-based; conditions: Homo sapiens
Experimental: as §1

[6] = system: ovarian cancer cells (SK-OV-3); assay: Cytotoxicity by MTT analysis, SK-OV-3; format: cell-based; conditions: Homo sapiens, SK-OV-3, MTT analysis, read-out: IC50 (nM) SK-OV3 Ovarian cancer
Experimental: as §1

**Q.** For O=C(CCc1ccco1)Nc1ncc(-c2ccc(F)cc2)s1 [HF-154, N-(5-(4-fluorophenyl)thiazol-2-yl)-3-(furan-2-yl)propanamide], which IC50 (lung cancer cells (A549)) is on record?
**A.** Its IC50 is ~3 nM.

**Q.** What about the IC50 [1] of the same molecule?
**A.** The IC50 was ~0.1 nM.

**Q.** What about the IC50 [2] of the same molecule?
**A.** The IC50 was ~5 nM.

**Q.** And the “size of the tumor compared to the excipient administration group” value [3]?
**A.** The value was “significantly reduced”.

**Q.** What about the IC50 ([4]; Homo sapiens, HCT-15, MTT analysis) of the same molecule?
**A.** The IC50 was 1 to 5 nM.

**Q.** What about the IC50 ([4]; MTT analysis) of the same molecule?
**A.** Its IC50 is ~1 nM.

**Q.** What about the IC50 [5] of the same molecule?
**A.** The IC50 was ~0.3 nM.

**Q.** And the IC50 [6]?
**A.** Its IC50 is ~0.5 nM.

Reference: patent US9457015B2, “2-aminothiazole derivative and anti-cancer composition comprising same as active ingredient” (Chung-Ang University Industry-Academic Cooperation …, priority 2012, dated 2016)
